Two compounds from US8603493B2, “Carbosilane dendrimers, preparation method thereof and use of same” (Dendrico, S.L., priority 2005, dated 2013) can be followed below.

The target of data set [1] is T1, Insulin (recombinant human insulin) (Homo sapiens, UniProt P01308).
T1 construct: Despite having its molecular weight (5825 g/mol) and establishing an average of 4 (−) charges; purchased Novo Nordisk Actrapid (trade name; no catalogue number given)
In words: pH stability test of IM16 dendrimer-insulin complexes. The format is physicochemical. The conditions noted are these: 0.5 U insulin; pH 5, 6, 7.4, 9, 10; 15 minutes. The method, then: The test on the behaviour of the dendrimer-drug complexes previously formed on varying the medium's pH was again performed by evaluating the delay in polyacrylamide gel of the dendrimer bound to the drug with respect to free dendrimer, following a process similar to that used in the tests to determine the dendrimer-drug bond, although introducing a stage of variation of pH in the complex formation process of prior to electrophoresis, process that was performed in the following way: • Complex formation: It was performed in a final mixture volume of 30 μl, which is the maximum volume for loading in the gel. To do this, we started from the necessary quantity of dendrimer which provides a band perfectly identifiable by staining with silver nitrate in the gel once the electrophoresis has been performed: 20 μl of a 100 μM solution, which correspond to 1.2×10^15 molecules. […] An incubation was performed of the dendrimer and drug mixtures at 37° C. during 1 hour to give time for a more thermodynamically stable complex to form, although more time may be needed for its formation. For each pH to test, 2 mixtures were incubated. […]

For data set [2], the system named is U87-MG cells. In words: Toxicity in U-87-MG cells: LDH in the supernatant. The source says: The concentrations and volumes of each one of these compounds were the same used in the test performed with MTT. The commercial kit Cytotoxicity Detection KitPLUS (LDH), from Roche Applied Science was used to determine lactate dehydrogenase, following the manufacturer's instructions.

Data set [3] relates to U87-MG cells. Nature of the data set: Transfection of U87-MG cells mediated by dendrimers (flow cytometry). Format: cell-based. To be noted: dendriplex with anti-rev oligonucleotide 250 nM, − charge/+ charge ratio 1:8, 24 hours. Here is the method:
100000 cells/well were plated of the corresponding cell line in a 24-well plate with 500 μl of medium.
Dendriplexes were formed with dendrimers NN and NN16 and the fluorescent anti-rev antisense oligonucleotide in a total volume of 75 μl of medium without serum, wherein the anti-rev oligonucleotide was mixed at a concentration 250 nM and the corresponding dendrimer in different proportions, so that different − charge/+ charge ratios were obtained: 1:1, 1:2, 1:4 and 1:8. The mixture was incubated during half an hour at ambient temperature and then it was added to the corresponding well to incubate the cells with dendriplexes.
After 24 hours of incubation, the cells were removed from the well, they were washed twice with PBS, they were incubated for 1 minute with acid glycine to remove the possible moieties of dendriplexes which may have remained adhered on the cell membrane, and a final wash was performed with PBS. Finally, the cells were resuspended in 500 μl of PBS and the quantity of fluorescent oligonucleotide inside the cell was quantified by flow cytometry.
Background: Flow cytometry measures light scatter and fluorescence of single cells or particles in a stream.

For another data set, the system named is HIVNL4.3. Nature of the data set: HIV inhibition test in PBMC. The format is cell-based. The conditions noted are these: NN 1, 3 and 5 μM before or after infection, 0.4 MOI, 24 h. The method, then:
The HIVNL4.3 virus strain was then added at a concentration of 1 particle per cell (1 MOI). The MT-2 and the virus were cultured during at least 2 hours at 37° C., stirring the culture every 15-30 minutes. Finally, the cultures (cells-virus) were washed twice to remove the virus which had not integrated in the cell genome. The cells were transferred and cultured in 25 cm^2 bottles in the same culture medium. […] All of them were placed in octuplicate and were maintained at 37° C. in CO2 atmosphere during a week. After this time, the titering was read by display of the cytopathic effect and […] formation. The titering was calculated by applying Spearman-Karber's formula^[30], which serves to quantify the number of particles of virus per ml of medium in a culture in which serial dilutions of the concentrate of virus to titer have been seeded in octuplicate. The PBMC were stimulated during 48 hours with 2 μg/ml of PHA and 100 IU of IL-2, to provoke a polyclonal activation; after 24 hours the cells were washed with PBS. […] The cultures were incubated at 37° C. and they were maintained in a humidified atmosphere with 5% CO2. […] To eliminate the influence of the possible toxicity of the dendrimer on the number of cells and the quantity of viral copies, the number of virus copies was adjusted to the percentage of live cells to be able to make comparisons between different dendrimer concentrations. […]

Structures are written as SMILES.

T1 sequence (P01308 25-54 limits assumed): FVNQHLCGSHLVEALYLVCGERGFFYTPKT
T1 sequence (P01308 90-110 limits assumed): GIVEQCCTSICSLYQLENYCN

For `C[N+](C)(C)CCO[Si](C)(CCC[Si](C)(CCC[Si](CCC[Si](C)(CCC[Si](C)(OCC[N+](C)(C)C)OCC[N+](C)(C)C)CCC[Si](C)(OCC[N+](C)(C)C)OCC[N+](C)(C)C)(CCC[Si](C)(CCC[Si](C)(OCC[N+](C)(C)C)OCC[N+](C)(C)C)CCC[Si](C)(OCC[N+](C)(C)C)OCC[N+](C)(C)C)CCC[Si](C)(CCC[Si](C)(OCC[N+](C)(C)C)OCC[N+](C)(C)C)CCC[Si](C)(OCC[N+](C)(C)C)OCC[N+](C)(C)C)CCC[Si](C)(OCC[N+](C)(C)C)OCC[N+](C)(C)C)OCC[N+](C)(C)C.[I-].[I-].[I-].[I-].[I-].[I-].[I-].[I-].[I-].[I-].[I-].[I-].[I-].[I-].[I-].[I-]` [IM16, 2G-[Si(OCH2CH2NMe3^+I^−)2]8], the “pH stability of dendrimer-insulin complex” value in data set [1] is on record as “dissociated at acid pH”.
In the case of `CN(CCO[Si](C)(C)CCC[Si](C)(CCC[Si](CCC[Si](C)(CCC[Si](C)(C)OCCN(C)CC[N+](C)(C)C)CCC[Si](C)(C)OCCN(C)CC[N+](C)(C)C)(CCC[Si](C)(CCC[Si](C)(C)OCCN(C)CC[N+](C)(C)C)CCC[Si](C)(C)OCCN(C)CC[N+](C)(C)C)CCC[Si](C)(CCC[Si](C)(C)OCCN(C)CC[N+](C)(C)C)CCC[Si](C)(C)OCCN(C)CC[N+](C)(C)C)CCC[Si](C)(C)OCCN(C)CC[N+](C)(C)C)CC[N+](C)(C)C.[I-].[I-].[I-].[I-].[I-].[I-].[I-].[I-]` [NN, 2G-[Si(O(CH2)2N(Me)(CH2)2NMe3^+I^−)]8], the “cytotoxicity (LDH), comparison” value in the data set with U87-MG cells [2] is listed as “greater cytotoxicity as their concentration increases”. Moreover, the “percentage of cells transfected” value in the data set with U87-MG cells [3] came to 95%. Besides, in the data set with HIVNL4.3, the “infection of PBMC by HIV (HIV DNA copies/10^6 cells adjusted to % live cells)” value is “good capacity for preventing the infection of lymphocytes by the HIV virus”.
